Consider 36 compounds from US10093623B2, “Cyclic amides as MetAP-2 inhibitors” (MERCK PATENT GmbH, priority 2012, dated 2018).

SMILES strings stand for the structures.

This assay deals with MetAP-2 (Homo sapiens, UniProt P50579). In words: MetAP-2 activity measurement (coupled enzymatic reactions, Met-Arg-Ser substrate, dianisidine detection at 450 nm). Conditions: Inhibition of MetAP-2; read-out: IC50 enzyme. Format: biochemical. How it is done:
MetAP-2 Activity Measurement
The MetAP-2 activity is determined by coupling enzymatic reactions. The tripeptide Met-Arg-Ser (MAS) is employed as substrate. The methionine liberated is firstly converted into Metox and H2O2 by L-aminooxidase (AAO). In the second step, the peroxidase (POD) with the aid of the H2O2 catalyses the oxidation of the leukodye dianisidine to dianisidineox, the increase of which is detected photometrically at 450 nm.
MetAP-2 activity can be recorded continuously as kinetics. The reaction scheme illustrates that one mol of dianisidineox is formed per mol of methionene. The MetAP-2 enzyme activity can therefore be calculated directly as A absorption per time unit. Qualification of the MetAP-2 activity (mol of Met/time unit) is possible with the aid of the dianisidineox extinction coefficient.
The change in extinction per time unit is depicted graphically and a slope calculation is carried out in the visually linear region of the reaction.

Sequence of MetAP-2 (P50579 whole entry, species assumed): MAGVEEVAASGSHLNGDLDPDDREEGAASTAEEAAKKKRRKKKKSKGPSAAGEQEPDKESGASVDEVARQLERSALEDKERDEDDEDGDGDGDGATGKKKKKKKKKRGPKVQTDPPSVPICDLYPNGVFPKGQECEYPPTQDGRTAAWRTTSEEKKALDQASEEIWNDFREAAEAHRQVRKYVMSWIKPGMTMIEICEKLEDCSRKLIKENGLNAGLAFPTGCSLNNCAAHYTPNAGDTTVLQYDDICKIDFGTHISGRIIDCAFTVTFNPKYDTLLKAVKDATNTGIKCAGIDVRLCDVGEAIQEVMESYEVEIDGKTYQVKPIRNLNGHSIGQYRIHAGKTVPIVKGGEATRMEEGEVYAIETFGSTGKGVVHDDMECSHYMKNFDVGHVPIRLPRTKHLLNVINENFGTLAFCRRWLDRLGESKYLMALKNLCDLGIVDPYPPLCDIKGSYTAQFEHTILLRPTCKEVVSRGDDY

For orientation: IC50 means the point on the concentration scale where inhibition reaches its midpoint. As to `O=C(N1CCN(CCO)CC1)[C@@]1(O)CCN(c2ccccc2)C1=O` [A57, (S)-3-Hydroxy-3-[4-(2-hydroxy-ethyl)piperazine-1-carbonyl]-1-phenylpyrrolidin-2-one], the IC50 was over 10 µM. Next, `O=C(NCCCn1ccnc1)[C@@]1(O)CCN(c2ccccc2)C1=O` [A58, N-(3-Imidazol-1-ylpropyl)-(S)-3-hydroxy-2-oxo-1-phenylpyrrolidine-3-carboxamide]: over 10 µM. On to `CN(C)CCNC(=O)[C@@]1(O)CCN(c2ccccc2)C1=O` [A59, N-(2-Dimethylaminoethyl)-(S)-3-hydroxy-2-oxo-1-phenylpyrrolidine-3-carboxamide], for which the IC50 was over 10 µM. As to `O=C(NCCc1ccc(Oc2ccccc2)cc1)[C@@]1(O)CCN(c2ccccc2)C1=O` [A60, N-[2-(4-Phenoxyphenyl)ethyl]-(S)-3-hydroxy-2-oxo-1-phenyl-pyrrolidine-3-carboxamide], the IC50 was over 10 µM.

With `CN(C)CCN(C)C(=O)[C@@]1(O)CCN(c2ccccc2)C1=O` [A61], the IC50 is over 10 µM. For `O=C(CNC(=O)[C@@]1(O)CCN(c2ccccc2)C1=O)N1CCOCC1` [A62, N-(2-Morpholin-4-yl-2-oxoethyl)-(S)-3-hydroxy-2-oxo-1-phenyl-pyrrolidine-3-carboxamide] the value was over 10 µM; for `CN1CCCC1CCNC(=O)[C@@]1(O)CCN(c2ccccc2)C1=O` (stereo partly drawn) [A63, N-[2-(1-Methylpyrrolidin-2-yl)ethyl]-(S)-3-hydroxy-2-oxo-1-phenyl-pyrrolidine-3-carboxamide], over 10 µM.

`CN(C)CCCNC(=O)[C@@]1(O)CCN(c2ccccc2)C1=O` [A64, N-(3-Dimethylaminopropyl)-(S)-3-hydroxy-2-oxo-1-phenylpyrrolidine-3-carboxamide]: the IC50 was over 10 µM. In the case of `O=C(NCc1cc(F)cc(Cl)c1)C1(O)CCCN(c2ccccc2)C1=O` (stereo not drawn) [A65, N-(3-Chloro-5-fluorobenzyl)-3-hydroxy-2-oxo-1-phenylpiperidine-3-carboxamide], the half-maximal inhibitory concentration (IC50) lay in the range of 0.01 to 1 µM. Take `O=C(NCc1cc(F)cc(Cl)c1)[C@@]1(O)CCCCN(c2ccccc2)C1=O` [A66, N-(3-chloro-5-fluorobenzyl)-(S)-3-hydroxy-2-oxo-1-phenylazepane-3-carboxamide]: the IC50 lay within 1 to 10 µM.

With `O=C(NCc1cc(F)cc(Cl)c1)[C@]1(O)CCCCN(c2ccccc2)C1=O` [A67, N-(3-chloro-5-fluorobenzyl)-(R)-3-hydroxy-2-oxo-1-phenylazepane-3-carboxamide], the IC50 was over 10 µM. For `O=C(NCc1cc(F)cc(Cl)c1)C1(O)CCN(c2ccc3cc[nH]c3c2)C1=O` (stereo not drawn) [A68, N-(3-Chloro-5-fluorobenzyl)-3-hydroxy-1-(1H-indol-6-yl)-2-oxo-pyrrolidine-3-carboxamide] the value was 0.01 to 1 µM; for `NC(=O)c1cccc(NC(=O)c2cccc(N3CCC(O)(C(=O)NCc4cc(F)cc(Cl)c4)C3=O)c2)c1` (stereo not drawn) [A69, N-(3-Chloro-5-fluorobenzyl)-1-[3-(3-carbamoylphenylcarbamoyl)-phenyl]-3-hydroxy-2-oxo-pyrrolidine-3-carboxamide], 0.01 to 1 µM; for `C/C=C/C(=O)[C@@]1(O)CCN(c2ccccc2)C1=O` [A70, (S)-3-((E)-but-2-enoyl)-3-hydroxy-1-phenylpyrrolidin-2-one], over 10 µM. For `CC(=O)N1CCC2(CC1)CN(c1ccccc1)C(=O)[C@@]2(O)C(=O)NCc1cc(F)cc(Cl)c1` [A71, N-(3-Chloro-5-fluorobenzyl)-(S)-8-acetyl-4-hydroxy-3-oxo-2-phenyl-2,8-diazaspiro[4.5]decane-4-carboxamide] the value was over 10 µM; for `O=C(c1cccc(N2CC[C@](O)(C(=O)NCc3cc(F)cc(Cl)c3)C2=O)c1)N1CCOCC1` [A72, N-(3-Chloro-5-fluorobenzyl)-(S)-3-hydroxy-1-[3-(morpholine-4-carbonyl)phenyl]-2-oxopyrrolidine-3-carboxamide], 0.01 to 1 µM.

For `CN(c1cccc(N2CCC(O)(C(=O)NCc3cc(F)cc(Cl)c3)C2=O)c1)S(C)(=O)=O` (stereo not drawn) [A73, N-(3-Chloro-5-fluorobenzyl)-3-hydroxy-1-[3-(methanesulfonyl-methylamino)phenyl]-2-oxo-pyrrolidine-3-carboxamide], the IC50 lay in the range of 0.01 to 1 µM. For `O=C(c1cccc(N2CC[C@@](O)(C(=O)NCc3cc(F)cc(Cl)c3)C2=O)c1)N1CCOCC1` [A74, N-(3-Chloro-5-fluorobenzyl)-(R)-3-hydroxy-1-[3-(morpholine-4-carbonyl)phenyl]-2-oxopyrrolidine-3-carboxamide] the value was over 10 µM; for `O=C(NC1CC1)c1cccc(N2CC[C@](O)(C(=O)NCc3cc(F)cc(Cl)c3)C2=O)c1` [A75, N-(3-Chloro-5-fluorobenzyl)-(S)-1-(3-cyclopropylcarbamoylphenyl)-3-hydroxy-2-oxopyrrolidine-3-carboxamide], 0.01 to 1 µM; for `O=C(NC1CCC1)c1cccc(N2CCC(O)(C(=O)NCc3cc(F)cc(Cl)c3)C2=O)c1` (stereo not drawn) [A76, N-(3-Chloro-5-fluorobenzyl)-1-(3-cyclobutylcarbamoylphenyl)-3-hydroxy-2-oxopyrrolidine-3-carboxamide], 0.01 to 1 µM. For `O=C(c1cccc(N2CC[C@](O)(C(=O)NCc3cc(F)cc(Cl)c3)C2=O)c1)N1CCCC1` [A77, N-(3-Chloro-5-fluorobenzyl)-(S)-3-hydroxy-2-oxo-1-[3-(pyrrolidine-1-carbonyl)phenyl]pyrrolidine-3-carboxamide] the value was 0.01 to 1 µM; for `CCC(=O)Nc1ccc(N2CCC(O)(C(=O)NCc3cc(F)cc(Cl)c3)C2=O)cn1` (stereo not drawn) [A78, N-(3-Chloro-5-fluorobenzyl)-3-hydroxy-2-oxo-1-(6-propionylaminopyridin-3-yl)-pyrrolidine-3-carboxamide], 0.01 to 1 µM; for `CCS(=O)(=O)Nc1cccc(N2CC[C@](O)(C(=O)NCc3cc(F)cc(Cl)c3)C2=O)c1` [A79, N-(3-Chloro-5-fluorobenzyl)-(S)-1-(3-ethanesulfonylaminophenyl)-3-hydroxy-2-oxopyrrolidine-3-carboxamide], 0.01 to 1 µM. Next, `O=C(NCc1cc(F)cc(Cl)c1)[C@@]1(O)CCN(c2cccc(NS(=O)(=O)C3CC3)c2)C1=O` [A80, N-(3-Chloro-5-fluorobenzyl)-(S)-1-(3-cyclopropanesulfonylamino-phenyl)-3-hydroxy-2-oxo-pyrrolidine-3-carboxamide]: 0.01 to 1 µM; `O=C(NCc1cc(F)cc(Cl)c1)[C@@]1(O)CCCN(Cc2ccccc2)C1=O` [A81, N-(3-Chloro-5-fluorobenzyl)-(S)-1-benzyl-3-hydroxy-2-oxopiperidine-3-carboxamide]: 0.01 to 1 µM; `O=C(NC1CC1)c1cccc(N2CC[C@@](O)(C(=O)NCc3cc(F)cc(Cl)c3)C2=O)c1` [A82, N-(3-Chloro-5-fluorobenzyl)-(R)-1-(3-cyclopropylcarbamoylphenyl)-3-hydroxy-2-oxopyrrolidine-3-carboxamide]: 1 to 10 µM. For `O=C(c1cccc(N2CC[C@@](O)(C(=O)NCc3cc(F)cc(Cl)c3)C2=O)c1)N1CCCC1` [A83, N-(3-Chloro-5-fluorobenzyl)-(R)-3-hydroxy-2-oxo-1-[3-(pyrrolidine-1-carbonyl)phenyl]pyrrolidine-3-carboxamide], the IC50 is over 10 µM. For `CCS(=O)(=O)Nc1cccc(N2CC[C@@](O)(C(=O)NCc3cc(F)cc(Cl)c3)C2=O)c1` [A84, N-(3-Chloro-5-fluorobenzyl)-(R)-1-(3-ethanesulfonylaminophenyl)-3-hydroxy-2-oxopyrrolidine-3-carboxamide] the value was 1 to 10 µM. Next, `O=C(NCc1cc(F)cc(Cl)c1)[C@]1(O)CCN(c2cccc(NS(=O)(=O)C3CC3)c2)C1=O` [A85, N-(3-Chloro-5-fluorobenzyl)-(R)-1-(3-cyclopropanesulfonylamino-phenyl)-3-hydroxy-2-oxo-pyrrolidine-3-carboxamidee]: over 10 µM; `O=C(NCc1cc(F)cc(Cl)c1)[C@]1(O)CCCN(Cc2ccccc2)C1=O` [A86, N-(3-Chloro-5-fluorobenzyl)-(R)-1-benzyl-3-hydroxy-2-oxo-piperidine-3-carboxamide]: over 10 µM. Regarding `N#Cc1c[nH]c2ccc(N3CCC(O)(C(=O)NCc4cc(F)cc(Cl)c4)C3=O)cc12` (stereo not drawn) [A87, N-(3-Chloro-5-fluorobenzyl)-1-(3-cyano-1H-indol-5-yl)-3-hydroxy-2-oxopyrrolidine-3-carboxamide], the IC50 fell in the range of 0.01 to 1 µM. For `O=C(NCCO)c1cccc(N2CC[C@](O)(C(=O)NCc3cc(F)cc(Cl)c3)C2=O)c1` [A88, N-(3-Chloro-5-fluorobenzyl)-(S)-3-hydroxy-1-[3-(2-hydroxy-ethylcarbamoyl)phenyl]-2-oxo-pyrrolidine-3-carboxamide] the value was 0.01 to 1 µM; for `C=C(Cc1ccccc1)C(=O)C1(O)CCN(c2ccccc2)C1=O` (stereo not drawn) [A89, 3-(2-benzylacryloyl)-3-hydroxy-1-phenylpyrrolidin-2-one], over 10 µM. For `O=C(NCc1cc(F)cc(Cl)c1)[C@@]1(O)CCN(CCc2ccccc2)C1=O` [A90, N-(3-Chloro-5-fluorobenzyl)-(S)-3-hydroxy-2-oxo-1-phenethyl-pyrrolidine-3-carboxamide] the value was 0.01 to 1 µM; for `O=C(NCCO)c1cccc(N2CC[C@@](O)(C(=O)NCc3cc(F)cc(Cl)c3)C2=O)c1` [A91, N-(3-Chloro-5-fluorobenzyl)-(R)-3-hydroxy-1-[3-(2-hydroxy-ethylcarbamoyl)phenyl]-2-oxo-pyrrolidine-3-carboxamide], over 10 µM. For `O=C(NCc1cc(F)cc(Cl)c1)[C@]1(O)CCN(CCc2ccccc2)C1=O` [A92, N-(3-Chloro-5-fluorobenzyl)-(R)-3-hydroxy-2-oxo-1-phenethyl-pyrrolidine-3-carboxamide] the value was 1 to 10 µM.
